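Briefly, cells in 96-well plates were exposed to five compound concentrations for 48 h, and endpoints were estimated by linear interpolation. At the GI50, growth is halved.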 Activity calls are given as the source filed them. No stated cut-off is given here; in the data, active = GI50 up to about 1.1 µM and inactive = higher.
What was measured:
Assay in all cases: NCI anticancer screen, dose series, 48 h
BT-549 = test system: BT-549
NCI-H226 = test system: NCI-H226
UACC-257 = test system: UACC-257
A498 = test system: A498
IGROV-1 = test system: IGROV-1
OVCAR-3 = test system: OVCAR-3
SW-620 = test system: SW-620
EKVX = test system: EKVX
SF-268 = test system: SF-268
NCI-H522 = test system: NCI-H522
Hs-578T = test system: Hs-578T
MDA-N = test system: MDA-N
OVCAR-8 = test system: OVCAR-8
NCI/ADR-RES = test system: NCI/ADR-RES
SF-295 = test system: SF-295
A549 = test system: A549
LOX IMVI = test system: LOX IMVI
UO-31 = test system: UO-31
HCT-116 = test system: HCT-116
KM12 = test system: KM12
UACC-62 = test system: UACC-62
SN12C = test system: SN12C
HT-29 = test system: HT-29
PC-3 = test system: PC-3
SNB-75 = test system: SNB-75
SR = test system: SR
CCRF-CEM = test system: CCRF-CEM
K562 = test system: K562
ACHN = test system: ACHN
CAKI-1 = test system: CAKI-1
COLO 205 = test system: COLO 205
SK-MEL-2 = test system: SK-MEL-2
RXF 393 = test system: RXF 393
MOLT-4 = test system: MOLT-4
786-0 = test system: 786-0
SK-OV-3 = test system: SK-OV-3
HL-60 = test system: HL-60
MDA-MB-231 = test system: MDA-MB-231
HCC 2998 = test system: HCC 2998
RPMI-8226 = test system: RPMI-8226
NCI-H460 = test system: NCI-H460
NCI-H23 = test system: NCI-H23
Malme-3M = test system: Malme-3M
OVCAR-4 = test system: OVCAR-4
HCT-15 = test system: HCT-15
SNB-19 = test system: SNB-19
SF-539 = test system: SF-539
OVCAR-5 = test system: OVCAR-5
HOP-92 = test system: HOP-92
MCF7 = test system: MCF7
HOP-62 = test system: HOP-62
TK-10 = test system: TK-10
T47D = test system: T47D
SK-MEL-28 = test system: SK-MEL-28
U-251 = test system: U-251
SK-MEL-5 = test system: SK-MEL-5
DU-145 = test system: DU-145
M14 = test system: M14
MDA-MB-435 = test system: MDA-MB-435
SNB-78 = test system: SNB-78
M19-MEL = test system: M19-MEL
DLD-1 = test system: DLD-1
KM-20L2 = test system: KM-20L2
LXFL 529 = test system: LXFL 529
DMS-273 = test system: DMS-273
DMS-114 = test system: DMS-114

COc1cc(C(c2cc3c(cc2O)OCO3)N2CCCCC2)cc(OC)c1OC (configuration not stated)
GI50 (BT-549): 12 µM (inactive)
GI50 (NCI-H226): 16.1 µM (inactive)
GI50 (UACC-257): 12.5 µM (inactive)
GI50 (A498): 19.5 µM (inactive)
GI50 (IGROV-1): 17.7 µM (inactive)
GI50 (OVCAR-3): 13.8 µM (inactive)
GI50 (SW-620): 4.57 µM (inactive)
GI50 (EKVX): 18.7 µM (inactive)
GI50 (SF-268): 15.8 µM (inactive)
GI50 (NCI-H522): 11.8 µM (inactive)
GI50 (Hs-578T): 14 µM (inactive)
GI50 (MDA-N): 7.28 µM (inactive)
GI50 (OVCAR-8): 13.2 µM (inactive)
GI50 (NCI/ADR-RES): 17.5 µM (inactive)
GI50 (SF-295): 41.5 µM (inactive)
GI50 (A549): 20.9 µM (inactive)
GI50 (LOX IMVI): 14.8 µM (inactive)
GI50 (UO-31): 14.8 µM (inactive)
GI50 (HCT-116): 15.4 µM (inactive)
GI50 (KM12): 18.2 µM (inactive)
GI50 (UACC-62): 16.4 µM (inactive)
GI50 (SN12C): 11.5 µM (inactive)
GI50 (HT-29): 17 µM (inactive)
GI50 (PC-3): 15.8 µM (inactive)
GI50 (SNB-75): 16.8 µM (inactive)
GI50 (SR): 2.33 µM (inactive)
GI50 (CCRF-CEM): 1.85 µM (inactive)
GI50 (K562): 2.63 µM (inactive)
GI50 (ACHN): 17.1 µM (inactive)
GI50 (CAKI-1): 12.1 µM (inactive)
GI50 (COLO 205): 13.4 µM (inactive)
GI50 (SK-MEL-2): 15.7 µM (inactive)
GI50 (RXF 393): 13.2 µM (inactive)
GI50 (MOLT-4): 2.15 µM (inactive)
GI50 (786-0): 5.86 µM (inactive)
GI50 (SK-OV-3): 22.2 µM (inactive)
GI50 (HL-60): 1.76 µM (inactive)
GI50 (MDA-MB-231): 15 µM (inactive)
GI50 (HCC 2998): 22.2 µM (inactive)
GI50 (RPMI-8226): 2.96 µM (inactive)
GI50 (NCI-H460): 21.8 µM (inactive)
GI50 (NCI-H23): 15.2 µM (inactive)
GI50 (Malme-3M): 12.8 µM (inactive)
GI50 (OVCAR-4): 11.9 µM (inactive)
GI50 (HCT-15): 15.9 µM
GI50 (SNB-19): 20.6 µM (inactive)
GI50 (SF-539): 17.9 µM (inactive)
GI50 (OVCAR-5): 17.8 µM (inactive)
GI50 (HOP-92): 9.25 µM (inactive)
GI50 (MCF7): 13.6 µM (inactive)
GI50 (HOP-62): 30 µM (inactive)
GI50 (TK-10): 17 µM (inactive)
GI50 (T47D): 22.4 µM (inactive)
GI50 (SK-MEL-28): 16.7 µM (inactive)
GI50 (U-251): 15.8 µM (inactive)
GI50 (SK-MEL-5): 19.1 µM (inactive)
GI50 (DU-145): 17.5 µM (inactive)
GI50 (M14): 6.28 µM (inactive)
GI50 (MDA-MB-435): 5.02 µM (inactive)

O=C(CC1(O)C(=O)Nc2ccccc21)c1ccncc1 (configuration not stated)
GI50 (NCI-H226): > 100 µM (inactive)
GI50 (A498): > 100 µM (inactive)
GI50 (IGROV-1): > 100 µM (inactive)
GI50 (SW-620): > 100 µM (inactive)
GI50 (EKVX): > 100 µM (inactive)
GI50 (SF-268): > 100 µM (inactive)
GI50 (NCI-H522): > 100 µM (inactive)
GI50 (SNB-78): > 100 µM (inactive)
GI50 (M19-MEL): > 100 µM (inactive)
GI50 (SF-295): > 100 µM (inactive)
GI50 (A549): > 100 µM (inactive)
GI50 (LOX IMVI): > 100 µM (inactive)
GI50 (UO-31): > 100 µM (inactive)
GI50 (HCT-116): > 100 µM (inactive)
GI50 (UACC-62): > 100 µM (inactive)
GI50 (DLD-1): > 100 µM (inactive)
GI50 (SN12C): > 100 µM (inactive)
GI50 (HT-29): > 100 µM (inactive)
GI50 (SNB-75): > 100 µM (inactive)
GI50 (SR): > 100 µM (inactive)
GI50 (CCRF-CEM): > 100 µM (inactive)
GI50 (K562): > 100 µM (inactive)
GI50 (ACHN): > 100 µM (inactive)
GI50 (CAKI-1): > 100 µM (inactive)
GI50 (COLO 205): > 100 µM (inactive)
GI50 (SK-MEL-2): > 100 µM (inactive)
GI50 (RXF 393): > 100 µM (inactive)
GI50 (MOLT-4): > 100 µM (inactive)
GI50 (KM-20L2): > 100 µM (inactive)
GI50 (786-0): > 100 µM (inactive)
GI50 (SK-OV-3): > 100 µM (inactive)
GI50 (HL-60): > 100 µM (inactive)
GI50 (HCC 2998): > 100 µM (inactive)
GI50 (LXFL 529): > 100 µM (inactive)
GI50 (RPMI-8226): > 100 µM (inactive)
GI50 (NCI-H460): > 100 µM (inactive)
GI50 (NCI-H23): > 100 µM (inactive)
GI50 (OVCAR-4): > 100 µM (inactive)
GI50 (HCT-15): > 100 µM
GI50 (SNB-19): > 100 µM (inactive)
GI50 (SF-539): > 100 µM (inactive)
GI50 (DMS-273): > 100 µM (inactive)
GI50 (OVCAR-5): > 100 µM (inactive)
GI50 (HOP-92): > 100 µM (inactive)
GI50 (DMS-114): > 100 µM (inactive)
GI50 (SK-MEL-28): > 100 µM (inactive)
GI50 (U-251): > 100 µM (inactive)
GI50 (SK-MEL-5): > 100 µM (inactive)
GI50 (M14): > 100 µM (inactive)

C[N+](C)(C)CCCCCc1c2nc(c(CCCCC[N+](C)(C)C)c3ccc([nH]3)c(CCCCC[N+](C)(C)C)c3nc(c(CCCCC[N+](C)(C)C)c4ccc1[nH]4)C=C3)C=C2
GI50 (BT-549): > 100 µM (inactive)
GI50 (NCI-H226): > 100 µM (inactive)
GI50 (UACC-257): > 100 µM (inactive)
GI50 (A498): > 100 µM (inactive)
GI50 (IGROV-1): > 100 µM (inactive)
GI50 (OVCAR-3): > 100 µM (inactive)
GI50 (SW-620): > 100 µM (inactive)
GI50 (EKVX): 99.8 µM (inactive)
GI50 (SF-268): > 100 µM (inactive)
GI50 (NCI-H522): > 100 µM (inactive)
GI50 (Hs-578T): 56 µM (inactive)
GI50 (MDA-N): > 100 µM (inactive)
GI50 (OVCAR-8): > 100 µM (inactive)
GI50 (NCI/ADR-RES): > 100 µM (inactive)
GI50 (SF-295): > 100 µM (inactive)
GI50 (A549): 87.9 µM (inactive)
GI50 (LOX IMVI): > 100 µM (inactive)
GI50 (UO-31): > 100 µM (inactive)
GI50 (HCT-116): > 100 µM (inactive)
GI50 (KM12): > 100 µM (inactive)
GI50 (UACC-62): > 100 µM (inactive)
GI50 (SN12C): > 100 µM (inactive)
GI50 (HT-29): > 100 µM (inactive)
GI50 (PC-3): > 100 µM (inactive)
GI50 (SNB-75): > 100 µM (inactive)
GI50 (SR): > 100 µM (inactive)
GI50 (CCRF-CEM): > 100 µM (inactive)
GI50 (K562): > 100 µM (inactive)
GI50 (ACHN): > 100 µM (inactive)
GI50 (CAKI-1): > 100 µM (inactive)
GI50 (COLO 205): > 100 µM (inactive)
GI50 (SK-MEL-2): > 100 µM (inactive)
GI50 (RXF 393): 2.77 µM (inactive)
GI50 (MOLT-4): > 100 µM (inactive)
GI50 (786-0): > 100 µM (inactive)
GI50 (SK-OV-3): > 100 µM (inactive)
GI50 (HL-60): > 100 µM (inactive)
GI50 (MDA-MB-231): > 100 µM (inactive)
GI50 (HCC 2998): > 100 µM (inactive)
GI50 (RPMI-8226): > 100 µM (inactive)
GI50 (NCI-H460): 67.3 µM (inactive)
GI50 (NCI-H23): > 100 µM (inactive)
GI50 (Malme-3M): > 100 µM (inactive)
GI50 (OVCAR-4): > 100 µM (inactive)
GI50 (HCT-15): > 100 µM
GI50 (SNB-19): > 100 µM (inactive)
GI50 (SF-539): > 100 µM (inactive)
GI50 (OVCAR-5): > 100 µM (inactive)
GI50 (HOP-92): > 100 µM (inactive)
GI50 (MCF7): > 100 µM (inactive)
GI50 (HOP-62): > 100 µM (inactive)
GI50 (TK-10): 11.3 µM (inactive)
GI50 (T47D): > 100 µM (inactive)
GI50 (SK-MEL-28): > 100 µM (inactive)
GI50 (U-251): > 100 µM (inactive)
GI50 (SK-MEL-5): > 100 µM (inactive)
GI50 (DU-145): > 100 µM (inactive)
GI50 (M14): > 100 µM (inactive)
GI50 (MDA-MB-435): > 100 µM (inactive)

From ChEMBL document CHEMBL1201862, “PubChem BioAssay data set” (2004)
